Assay results reported in patent publication US5439891A (priority 1993, dated 1995).

What was measured:
[1] = type: in vivo; settings: rats; in combination with piperine
[2] = in vivo
[3] = cited from earlier work

CO[C@H]1/C=C/O[C@@]2(C)Oc3c(C)c(O)c4c(O)c(c(/C=N/N5CCN(C)CC5)c(O)c4c3C2=O)NC(=O)/C(C)=C\C=C\[C@H](C)[C@H](O)[C@@H](C)[C@@H](O)[C@@H](C)[C@H](OC(C)=O)[C@@H]1C [rifampicin]
AUC compared to drugs without piperine in equivalent doses [1]: very high AUC
plasma levels [1]: significant increase
bioavailability in combination with piperine [2]: significantly increasing the bioavailability

O=C(/C=C/C=C/c1ccc2c(c1)OCO2)N1CCCCC1 [Piperine, (E, E) 1-[5-(1,3-benzodioxyl-5-yl)-1-oxo-2,4-pentadenyl] piperidine]
solubility in organic solvents ([3]; benzene, chlorform, ether, ethyl acetate, dichloromethane, alcohol, acetic acid): soluble
solubility in pet. ether ([3]; pet. ether): insoluble
solubility in water ([3]; water): insoluble
bioavailability of the drugs in blood [2]: increase in the bioavailability

NNC(=O)c1ccncc1 [isoniazid]
AUC compared to drugs without piperine in equivalent doses [1]: very high AUC
plasma levels [1]: significant increase

NC(=O)c1cnccn1 [pyrazinamide]
AUC compared to drugs without piperine in equivalent doses [1]: very high AUC
plasma levels [1]: significant increase
